Experimental data as given in ChEMBL document CHEMBL1201862, “PubChem BioAssay data set” (2004).
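Interpolation was linear, between the two tested concentrations surrounding the appropriate level; five concentrations were tested over 48 hours in 96-well plates. GI50 is the concentration that inhibits growth by half.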 Active and inactive are the calls of the source. No stated cut-off is given here; in the data, active = GI50 up to about 1.1 µM and inactive = higher.

How the values were obtained:
Test in all cases: NCI tumour cell line growth inhibition, 48 h
SF-539 = test system: SF-539
IGROV-1 = test system: IGROV-1
SK-MEL-2 = test system: SK-MEL-2
K562 = test system: K562
A549 = test system: A549
OVCAR-4 = test system: OVCAR-4
SW-620 = test system: SW-620
HCC 2998 = test system: HCC 2998
PC-3 = test system: PC-3
COLO 205 = test system: COLO 205
SK-OV-3 = test system: SK-OV-3
CCRF-CEM = test system: CCRF-CEM
SK-MEL-28 = test system: SK-MEL-28
SF-295 = test system: SF-295
KM12 = test system: KM12
MOLT-4 = test system: MOLT-4
RXF 393 = test system: RXF 393
RPMI-8226 = test system: RPMI-8226
HOP-92 = test system: HOP-92
NCI-H460 = test system: NCI-H460

Row | Compound | GI50 (SF-539) | GI50 (IGROV-1) | GI50 (SK-MEL-2) | GI50 (K562) | GI50 (A549) | GI50 (OVCAR-4) | GI50 (SW-620) | GI50 (HCC 2998) | GI50 (PC-3) | GI50 (COLO 205) | GI50 (SK-OV-3) | GI50 (CCRF-CEM) | GI50 (SK-MEL-28) | GI50 (SF-295) | GI50 (KM12) | GI50 (MOLT-4) | GI50 (RXF 393) | GI50 (RPMI-8226) | GI50 (HOP-92) | GI50 (NCI-H460)
1 | CC1(C)NC(C(=O)c2ccccc2)=[N+]([O-])C1(O)c1ccccc1 (configuration not stated) | > 100 µM (inactive) | > 100 µM (inactive) | > 100 µM (inactive) | > 100 µM (inactive) | > 100 µM (inactive) | > 100 µM (inactive) | > 100 µM (inactive) | > 100 µM (inactive) | > 100 µM (inactive) | > 100 µM (inactive) | > 100 µM (inactive) | > 100 µM (inactive) | > 100 µM (inactive) | > 100 µM (inactive) | > 100 µM (inactive) | > 100 µM (inactive) | > 100 µM (inactive) | > 100 µM (inactive) | > 100 µM (inactive) | > 100 µM (inactive)
2 | COc1cccc(C2c3cc4c(cc3OC(C)(N3CCCC3)C2C)OCO4)c1O (configuration not stated) | 4.31 µM (inactive) | 6.01 µM (inactive) | 4.98 µM (inactive) | 3.45 µM (inactive) | 6.7 µM (inactive) | 13.3 µM (inactive) | 4.01 µM (inactive) | 8.09 µM (inactive) | 3.32 µM (inactive) | 3.13 µM (inactive) | 3.44 µM (inactive) | 9.06 µM (inactive) | 12.2 µM (inactive) | 4.9 µM (inactive) | 3.14 µM (inactive) | 6.64 µM (inactive) | 2.89 µM (inactive) | 5.32 µM (inactive) | 11.5 µM (inactive) | 5.5 µM (inactive)
3 | CC(C)(C)OC(=O)NC(CS(=O)(=O)O)C(=O)O (configuration not stated) | > 100 µM (inactive) | > 100 µM (inactive) | > 100 µM (inactive) | > 100 µM (inactive) | > 100 µM (inactive) | > 100 µM (inactive) | > 100 µM (inactive) | > 100 µM (inactive) | > 100 µM (inactive) | > 100 µM (inactive) | > 100 µM (inactive) | > 100 µM (inactive) | > 100 µM (inactive) | > 100 µM (inactive) | > 100 µM (inactive) | > 100 µM (inactive) | > 100 µM (inactive) | > 100 µM (inactive) | > 100 µM (inactive) | > 100 µM (inactive)
4 | Cc1cccc(Nc2cnc(N)nc2N)c1 | > 100 µM (inactive) | > 100 µM (inactive) | > 100 µM (inactive) | > 100 µM (inactive) | > 100 µM (inactive) | > 100 µM (inactive) | > 100 µM (inactive) | > 100 µM (inactive) | > 100 µM (inactive) | > 100 µM (inactive) | > 100 µM (inactive) | > 100 µM (inactive) | > 100 µM (inactive) | > 100 µM (inactive) | > 100 µM (inactive) | > 100 µM (inactive) | 98.9 µM (inactive) | > 100 µM (inactive) | > 100 µM (inactive) | –
5 | O=C(O)/C=C/c1ccc(O)c(O)c1 [CAFFEIC ACID] | > 100 µM (inactive) | > 100 µM (inactive) | > 100 µM (inactive) | > 100 µM (inactive) | > 100 µM (inactive) | > 100 µM (inactive) | > 43.3 µM (inactive) | > 100 µM (inactive) | > 100 µM (inactive) | > 100 µM (inactive) | > 100 µM (inactive) | > 57.5 µM (inactive) | > 100 µM (inactive) | > 100 µM (inactive) | > 100 µM (inactive) | > 100 µM (inactive) | > 100 µM (inactive) | > 100 µM (inactive) | > 100 µM (inactive) | > 100 µM (inactive)
6 | CC(=O)O[C@H]1C(=O)N(c2cc3c4ccccc4ccc3c3ccccc23)[C@@H]1c1ccccc1 | 3.89 µM (inactive) | 2.11 µM (inactive) | 2.65 µM (inactive) | 4.8 µM (inactive) | 4.56 µM (inactive) | 4.66 µM (inactive) | – | 5.04 µM (inactive) | 7.82 µM (inactive) | 4.24 µM (inactive) | 4.74 µM (inactive) | 3.76 µM (inactive) | 10.4 µM (inactive) | 3.64 µM (inactive) | 2.9 µM (inactive) | 7.69 µM (inactive) | 2.72 µM (inactive) | 2.23 µM (inactive) | 17.5 µM (inactive) | 4.31 µM (inactive)
7 | O=C1C(Nc2ccc(S(=O)(=O)Nc3cnc4ccccc4n3)cc2)=C/C(=N\c2ccc(S(=O)(=O)Nc3cnc4ccccc4n3)cc2)c2ccccc21 | 18.9 µM (inactive) | 19.1 µM (inactive) | 17.9 µM (inactive) | 28.1 µM (inactive) | 19.7 µM (inactive) | 20.8 µM (inactive) | 17.5 µM (inactive) | 17.5 µM (inactive) | 20.5 µM (inactive) | 18.5 µM (inactive) | 17.2 µM (inactive) | 24 µM (inactive) | 18.1 µM (inactive) | 16.3 µM (inactive) | 16.9 µM (inactive) | 25 µM (inactive) | 17.7 µM (inactive) | 27.9 µM (inactive) | 15 µM (inactive) | 16.7 µM (inactive)
8 | COc1cc(-c2cc(=O)c3c(OC)c(OC)c(OC)c(OC)c3o2)c(OC)c(OC)c1OC | 47.8 µM (inactive) | 12.3 µM (inactive) | 20.5 µM (inactive) | 60.3 µM (inactive) | 48.1 µM (inactive) | 30.7 µM (inactive) | 45.3 µM (inactive) | 49.3 µM (inactive) | 14.3 µM (inactive) | 45.8 µM (inactive) | 76.7 µM (inactive) | 50.7 µM (inactive) | 42.5 µM (inactive) | 43.8 µM (inactive) | 21.9 µM (inactive) | 72.6 µM (inactive) | 28.6 µM (inactive) | 24.5 µM (inactive) | 13.9 µM (inactive) | 36.1 µM (inactive)
9 | COc1cnnc2c(C)c(-c3ccccc3)nn12 | > 100 µM (inactive) | 38.4 µM (inactive) | 40.4 µM (inactive) | > 100 µM (inactive) | > 95.9 µM (inactive) | > 79.4 µM (inactive) | > 100 µM (inactive) | > 100 µM (inactive) | > 86.5 µM (inactive) | > 100 µM (inactive) | 47.6 µM (inactive) | > 73.1 µM (inactive) | 71.9 µM (inactive) | > 78.7 µM (inactive) | > 75.2 µM (inactive) | > 83.6 µM (inactive) | 0.436 µM (active) | 56.5 µM (inactive) | 59.3 µM (inactive) | 66.1 µM (inactive)
10 | Cc1cccc2c(=O)c3c(O)cc(O)cc3n(C)c12 | > 100 µM (inactive) | > 100 µM (inactive) | > 100 µM (inactive) | 63.5 µM (inactive) | > 100 µM (inactive) | > 100 µM (inactive) | > 100 µM (inactive) | > 100 µM (inactive) | > 100 µM (inactive) | > 100 µM (inactive) | > 100 µM (inactive) | > 100 µM (inactive) | > 100 µM (inactive) | > 100 µM (inactive) | > 100 µM (inactive) | > 100 µM (inactive) | > 100 µM (inactive) | > 100 µM (inactive) | 91.4 µM (inactive) | > 100 µM (inactive)
11 | CN1c2ccc(O)c(O)c2-c2cc(O)cc3c2C1CCC3 (configuration not stated) | 21.6 µM (inactive) | 11.6 µM (inactive) | 24 µM (inactive) | 14.4 µM (inactive) | 29.9 µM (inactive) | 13.4 µM (inactive) | 17.5 µM (inactive) | 20.5 µM (inactive) | 19.2 µM (inactive) | 20.7 µM (inactive) | 51.9 µM (inactive) | 2.58 µM (inactive) | 20.8 µM (inactive) | 57.7 µM (inactive) | 21.4 µM (inactive) | 7.4 µM (inactive) | 7.23 µM (inactive) | 3.31 µM (inactive) | 13.9 µM (inactive) | 23.9 µM (inactive)
12 | OC(C1=C/C(=C\c2ccncc2)c2ccccc21)c1ccncc1 (configuration not stated) | 13.9 µM (inactive) | 14.4 µM (inactive) | 14.3 µM (inactive) | 4.72 µM (inactive) | 13.3 µM (inactive) | 12.4 µM (inactive) | 23 µM (inactive) | 8.39 µM (inactive) | 10.8 µM (inactive) | 14.5 µM (inactive) | 13.8 µM (inactive) | 7.41 µM (inactive) | 14.3 µM (inactive) | 8.65 µM (inactive) | 15.6 µM (inactive) | 5.71 µM (inactive) | 14 µM (inactive) | 2.37 µM (inactive) | 13.6 µM (inactive) | 12.9 µM (inactive)
13 | CC(C)(C)OC(=O)N[C@H]1CC2(C=C(Cl)C(=O)C(Cl)=C2)OC1=O | 21.1 µM (inactive) | 18.7 µM (inactive) | 19.1 µM (inactive) | 2.46 µM (inactive) | 38.3 µM (inactive) | 16.3 µM (inactive) | 4.33 µM (inactive) | 16.6 µM (inactive) | 17.1 µM (inactive) | 3.97 µM (inactive) | > 46.5 µM (inactive) | 1.38 µM (inactive) | 11.4 µM (inactive) | 21.9 µM (inactive) | 17.7 µM (inactive) | 2.48 µM (inactive) | 10.1 µM (inactive) | 2.65 µM (inactive) | 16.9 µM (inactive) | 24.3 µM (inactive)
14 | C/C(=N\NC(=S)NCCCCNC(=S)N/N=C(\C)c1ccccn1)c1ccccc1 | 1.11 µM (active) | 0.736 µM (active) | 6.71 µM (inactive) | 2.25 µM (inactive) | 1.66 µM (inactive) | 1.43 µM (inactive) | – | 1.66 µM (inactive) | 3.02 µM (inactive) | 0.832 µM (active) | 2.27 µM (inactive) | 0.391 µM (active) | 2.05 µM (inactive) | 0.982 µM (active) | 1.77 µM (inactive) | 0.556 µM (active) | 1.02 µM (active) | 1.35 µM (inactive) | 1.55 µM (inactive) | 0.481 µM (active)
